Data published in US12534729B2, “Uses of synthetic lethal partners for treatment of cancer” (Sanford Burnham Prebys Medical Discovery Institute, priority 2019, dated 2026).

What was measured:
[1] = test system: A375 and UACC-903 melanoma cells; experiment: Cell proliferation (cell count) of melanoma lines; assay type: cell-based, human; settings: PLX-4032 250 nM; for cell proliferation in combination with ASNS knockdown (si-ASNS): melanoma cells, ISRIB 200 nM
Method: siRNA Transfection: 1×10^5 cells were seeded overnight (O/N) per well in 6-well plates. Negative control (NT-siRNA) or si-RNA targeting the transcript of interest was transfected utilizing jetPRIME® transfection reagent, as per manufacturer's instructions (Polyplus, NY, USA). Following siRNAs were used: si-ASNS #1 (SASI_Hs02_00332309), si-ASNS #2 (SASI_Hs01_00116721), si-ASNS #3 (SASI_Hs01_00116722), si-ATF4 (SASI_Hs02_00332313), si-eIF4E (SASI_Hs01_00216117), si-BRAF (SASI_Hs01_00107705), si-GCN2 (SASI_Hs01_00097888), si-MNK #1 (SASI_Hs01_00228422), si-MNK1 #2 (SASI_Hs01_00228423), si-MNK1 #3 (SASI_Hs01_00228424), and the negative control si-RNA (NT-siRNA; SIC001) were purchased from Sigma-Aldrich.
Cell Proliferation: For cell proliferation, 0.3-0.5×10^5 cells were seeded O/N in triplicate in 6-well plate. Following treatment for the specified duration, cells were trypsinized and the cell count was determined with Neubauer hemocytometer (Celeromics, Cambridge, UK).

ATF4 = experiment: Immunoblotting/qRT-PCR of ATF4 induction (GCN2-ATF4 axis) after ASNS knockdown; assay type: cell-based, human; settings: for ATF4 induction following ASNS knockdown (immunoblot): melanoma cells, 72 hr, ISRIB 200 nM, eFT508 100 nM, sunitinib 500 nM
Method: (§1) Immunoblotting: Total protein was extracted in Laemmli buffer, fractionated by SDS polyacrylamide gels and transferred to PVDF membranes (Millipore Sigma, MA, USA). After blocking with 5% non-fat dry milk (BD Biosciences, CA, USA), the membranes were incubated with primary antibodies overnight at 4° C. Afterwards, 2 hr incubation with HRP-conjugated secondary antibodies was performed. Following chemiluminescence reaction, the protein signal was visualized using the ChemiDoc imaging system (Bio-Rad, Hercules, CA) according to the manufacturer's instructions.
qPCR Analysis: 1×10^5 cells were seeded O/N per well in 6-well plates. Following treatment for 48 hr, total RNA was extracted using RNeasy Mini Kit (Qiagen, Hilden, Germany). cDNA was synthesized using oligo(dT) and random primers (AB Bioscience, MA, USA), and qPCR analysis was performed with SYBR Green (Roche, NJ, USA). Primers were designed using the PrimerQuest tool (Integrated DNA Technologies, CA, USA) and Primer Bank Actin was used as an internal control.

[2] = test system: MaNRAS1 (1007) mouse melanoma cells; experiment: Subcutaneous MaNRAS1 (1007) NRAS mutant melanoma model; assay type: in vivo, C57BL/6 mice; settings: L-A′ase and PD-325901 dosed as in pancreatic study
Method: (§2) In Vivo Studies: All animal studies were conducted in the SBP Medical Discovery Institute Animal Facility in accordance with the Institutional Animal Care and Use Committee guidelines. 8-week-old males C57BL/6 mice were purchased from Jackson laboratories (Bar Harbor, ME) and allowed to acclimatize for 1 week. KRAS^LSLG12D/+. p53^R172H/+; PDX^Cretg/+ (KPC/B6) pancreatic cancer cells (1×10^6, suspended in 30 μl sterile PBS) were orthotopically injected into head of the pancreas. After one week, mice were randomized and sorted into treatment groups (n=8 animal/group). L-A′ase (60 IU/animal) was administered daily for five times a week for 3 weeks intraperitoneally. MEK inhibitor PD-325901 (4 mg/kg) in 0.5% (w/v) hydroxy-propyl-methylcellulose, 0.2% (v/v) Tween 80 (Sigma) was administered by oral gavage twice a week for 3 weeks. For in vivo melanoma study, 8-week-old male C57BL/6 mice were injected subcutaneously in the flank with 2×10^5 MaNRAS1 (1007) cells. When tumors reached ˜250 mm^3, mice were randomized and sorted into treatment groups (n=8 animal/group).
(§3) Mice were maintained in a pathogen-free environment with free access to food. Tumor volume was measured blinded twice a week. Tumor volume was measured with linear calipers and calculated using the formula: ([length in millimeters x (width in millimeters)2]/2). […]

[3] = test system: KRASLSLG12D/+; p53R172H/+; PDXCretg/+ (KPC/B6) pancreatic tumors; assay type: in vivo; settings: same regimen
Method: as §2, §3

ATF4 mRNA in A375 cells = experiment: Polysome profiling of ATF4 mRNA translation; assay type: cell-based, human; settings: si-ASNS plus PLX-4032 500 nM, 48 hr
Method: Polysome Profiling: Polysome profiling was performed as described previously (Gandin et al., 2014). A375 cells were seeded at 30% confluency in a 15-cm Petri dish and transfected with NT-siRNA, si-ASNS, si-MNK1 (#1), or si-ASNS+si-MNK1 for 16 hr, using JetPrime transfection reagent (Polyplus) as per manufacturer's instruction. Post-transfection, cells were replenished with fresh media containing vehicle (DMSO) or 500 nM PLX-4032 (Selleckchem) for 48 hr treatment. […] Optical density values at 260 nm (OD260) were measured in each lysate and OD260 of ˜5 were then loaded in 5-50% sucrose gradients generated using Gradient Master (Biocomp, Fredericton, NB). […] Sucrose gradients were subjected to ultracentrifugation (SW41 Ti 11E1698 rotor; Beckman 39,000 RPM for 2 hr at 4° C.) and fractionated by displacement using 60% sucrose/0.01% bromophenol blue, on ISCO Foxy fraction collector (35 sec for each fraction ˜750 μL per fraction) equipped with an ultraviolet lamp for continuous absorbance monitoring at 254 nm. […] Relative change in the transcript levels in different pools was determined by the 2-ΔΔCT method, and shown as fold-change relative to mock-treated cells. β-Actin was used as an internal control.

ERK1/2 = experiment: Immunoblotting of phosphorylated MEK1/2 and ERK1/2 (MAPK signaling); assay type: cell-based, human; settings: melanoma cells, 72 hr; gefitinib 1 μM, sunitinib 500 nM
Method: as §1

O=C(COc1ccc(Cl)cc1)NC1CCC(NC(=O)COc2ccc(Cl)cc2)CC1 (stereo not shown) [ISRIB]
cell proliferation in combination with ASNS knockdown (si-ASNS) [1]: potentiated anti-proliferative effects of ASNS depletion in melanoma cells | ATF4 induction following ASNS knockdown (immunoblot) (ATF4): suppression of ATF4 induction

O=C(NOC[C@H](O)CO)c1ccc(F)c(F)c1Nc1ccc(I)cc1F [PD-325901]
tumor growth (volume) [2]: only modest anti-tumor activity | apoptosis (cleaved caspase-3) [3]: did not result in a significant increase in apoptosis

CCCS(=O)(=O)Nc1ccc(F)c(C(=O)c2c[nH]c3ncc(-c4ccc(Cl)cc4)cc23)c1F [PLX-4032]
melanoma cell proliferation, drug alone ([1]; BRAF mutant melanoma lines): attenuated melanoma cell proliferation | cell proliferation in combination with ASNS knockdown (si-ASNS) [1]: a more effective inhibition was seen upon its combination with ASNS knockdown | translational efficiency of ATF4 mRNA (polysome distribution) (ATF4 mRNA in A375 cells): attenuated increase in translational efficiency of ATF4 mRNA caused by ASNS depletion

Cc1cc(Nc2cc(N)ncn2)c(=O)n2c1C(=O)NC21CCCCC1 [eFT508]
ATF4 induction following ASNS knockdown (immunoblot) (ATF4): did not antagonize ATF4 induction in response to ASNS suppression

COc1cc2ncnc(Nc3ccc(F)c(Cl)c3)c2cc1OCCCN1CCOCC1 [gefitinib]
MEK1/2 and ERK1/2 phosphorylation under ASNS knockdown (ERK1/2): did not alter ERK1/2 activation under ASNS knockdown conditions

CCC(=O)N1CCN(c2ccc(-n3c(=O)ccc4cnc5ccc(-c6cnc7ccccc7c6)cc5c43)cc2C(F)(F)F)CC1 [torin 1]
ATF4 induction and upregulation of ATF4 targets following ASNS knockdown (ATF4; melanoma and pancreatic cancer cell lines, rapamycin 100 nM, Torin 1 100 nM): blocked both ATF4 induction and upregulation of ATF4 targets seen following ASNS knockdown
